Assay results published in US10881698B2, “Diagnosis and treatment for respiratory tract diseases” (THE TRUSTEES OF THE UNIVERSITY OF PENNSYLVANIA, priority 2012, dated 2021).
Changes are numbered by the printed parent chain.

Tests used:
Kleibsiella pneumoniae = assay: Bactericidal effect of ASL from treated nasal cultures; format: cell-based; conditions: 10 mM denatonium or 300 μM absinthin
Pseudomonas aeruginosa = assay: Kill assay with ASL from stimulated sinonasal ALI cultures (CFU plating); format: cell-based; conditions: for Growth of bacteria mixed with ASL from stimulated cultures: 10 mM denatonium, 300 μM absinthin, Pseudomonas aeruginosa; for Effect of solutions alone on growth: no ASL, Pseudomonas
T2R38 [1] = target: T1, T2R38 (Homo sapiens, UniProt P59533, A49P/I296V); assay: DAF-FM imaging of NO production in human sinonasal ALI cultures; format: cell-based; conditions: thujone 5 mM, denatonium 10 mM; PAV/PAV cultures
T1 construct: T2R38 is expressed in human upper airway epithelium; endogenous in cells; host or cells: primary human sinonasal epithelial cells, air-liquid interface cultures from surgical patients
T1 sequence (P59533 1-333 A49P/I296V): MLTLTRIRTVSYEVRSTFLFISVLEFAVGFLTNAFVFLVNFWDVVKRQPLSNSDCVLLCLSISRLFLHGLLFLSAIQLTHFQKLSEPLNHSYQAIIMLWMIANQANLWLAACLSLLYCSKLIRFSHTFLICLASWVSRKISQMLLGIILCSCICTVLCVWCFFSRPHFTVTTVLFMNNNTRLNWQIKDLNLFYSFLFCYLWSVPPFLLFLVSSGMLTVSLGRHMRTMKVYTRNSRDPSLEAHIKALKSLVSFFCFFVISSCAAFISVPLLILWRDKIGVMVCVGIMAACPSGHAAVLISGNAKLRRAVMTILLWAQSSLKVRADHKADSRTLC

nasal epithelial cells = assay: Fluo-4 calcium signaling with denatonium in nasal epithelial cells (sinonasal ALI cultures); format: cell-based, human; conditions: 0.1-20 mM denatonium
AVI-TAS2R38 = target: T2, AVI-TAS2R38 (Homo sapiens, UniProt P59533, A262V); assay: Fluo-4 calcium mobilization in HEK293 cells expressing hTAS2R38 (AVI) and Gα16gustducin44; format: cell-based; conditions: 1 mM agonist; AVI variant
T2 construct: first 45 amino acids of rat SSTR-3 (N); host or cells: HEK293 (peakRapid), transient transfection, pcDNA3.1(+)
T2 sequence (P59533 1-333 A262V): T1 sequence (P59533 1-333 A49P/I296V) with P49A, A262V, V296I

PAV-TAS2R38 = target: T3, PAV-TAS2R38 (Homo sapiens, UniProt P59533, A49P/I296V); assay: Fluo-4 calcium mobilization in HEK293 cells expressing hTAS2R38 (PAV) and Gα16gustducin44; format: cell-based; conditions: 1 mM agonist; PAV variant
T3 construct: first 45 amino acids of rat SSTR-3 (N); host or cells: HEK293 (peakRapid), transient transfection, pcDNA3.1(+)
T3 sequence (P59533 1-333 A49P/I296V): T1 sequence (P59533 1-333 A49P/I296V)

beta-defensin 2 = assay: Beta-defensin 2 secretion by sinonasal cultures; format: cell-based, human
[2] = system: Methicillin-resistant Staphylococcus aureus (MRSA); assay: Kill assay with ASL from stimulated sinonasal ALI cultures (CFU plating); format: cell-based; conditions: for Growth of bacteria mixed with ASL from stimulated cultures: 10 mM denatonium, 300 μM absinthin; for Effect of solutions alone on growth: no ASL
T2R38 [3] = assay: Fluo-4 Ca2+ imaging in primary human sinonasal ALI cultures; format: cell-based; conditions: 1 mM PTC; PAV/AVI cultures
T2R38 [4] = target: T1, T2R38; assay: as above; format: cell-based; conditions: 1 mM PTC; PAV/PAV cultures
T2R38 [5] = target: T4, T2R38 (Homo sapiens, UniProt P59533, A262V); assay: as above; format: cell-based; conditions: 1 mM PTC; AVI/AVI cultures
T4 construct: T2R38 is expressed in human upper airway epithelium; endogenous in cells; host or cells: primary human sinonasal epithelial cells, air-liquid interface cultures from surgical patients
T4 sequence (P59533 1-333 A262V): T1 sequence (P59533 1-333 A49P/I296V) with P49A, A262V, V296I

[6] = system: acutely dissociated sinonasal ciliated epithelial cells; assay: Ca2+ and DAF-FM responses in acutely dissociated sinonasal ciliated cells; format: cell-based, human
T2R38 [7] = assay: NO metabolites in airway surface liquid by chemiluminescence; format: cell-based, human; conditions: 1 mM PTC; 20 min
Procedure: (§1) ASL from stimulated and unstimulated cultures (20 μL total volume for each) was collected after 20 min at 37° C. and frozen at −20° C. and protected from light until analysis. NO-metabolites were evaluated by reduction of metabolites with acidified-heated vanadium to nitric oxide and detection of nitric oxide by chemiluminescence on the Sievers 280 nitric oxide analyzer. Samples were injected into a custom made purge container containing 0.05 M Vanadium chloride in 1 N HCl heated to 95° C. The reading in millivolts was compared to a standard curve generated by injecting standard solutions of nitrate. This reductive method reports on the total levels of nitrate, nitrite, N-nitroso and iron-nitrosyl adducts as well as low molecular weight and protein S-nitrosothiol adducts.
(§2) The antibacterial properties of NO help maintain the sterility of the sinonasal airways. […] NO diffusion into the ASL was quantified by measuring NO-derived byproducts in 20 μL of airway surface liquid from cultures stimulated with 1 mM PTC (or PBS alone) for 20 min using reductive chemistries coupled with chemiluminescence detection of nitric oxide (FIG. 20A). ASL levels of NO metabolites (nitrate, nitrite, N-nitroso and iron-nitrosyl adducts as well as low molecular weight and protein S-nitrosothiol adducts) were not different in unstimulated PAV/PAV and AVI/AVI cultures (0.41±0.13 pmol/μL for PAV/PAV and 0.66±0.33 for AVI/AVI; n.s. vs PAV/PAV). However, the increase observed in PTC-stimulated PAV/PAV cultures was >2-fold larger than that observed in AVI/AVI cultures (FIG. 20A). In PTC stimulated cultures, NO metabolites in the ASL over 20 minutes were 4.37 pmol/μL (PAV/PAV; P<0.001 vs unstimulated PAV/PAV) and 1.72 pmol/μL (AVI/AVI; P<0.01 vs stimulated PAV/PAV; n.s. vs unstimulated AVI/AVI).

T2R38 [8] = target: T1, T2R38; assay: as above; format: cell-based; conditions: 1 mM PTC; PAV/PAV
Procedure: as §1, §2

T2R38 [9] = target: T4, T2R38; assay: as above; format: cell-based; conditions: 1 mM PTC; AVI/AVI
Procedure: as §1, §2

T2R38 [10] = target: T1, T2R38; assay: DAF-2/Texas Red dextran ratio assay of NO secretion into ASL; format: cell-based; conditions: 1 mM PTC, PAV/PAV
Procedure: (§3) For measurement of NO secretion, a protocol was developed in which a solution of Texas Red Dextran (an NO-insensitive cell-impermeant dye) and DAF-2 (an NO-sensitive cell-impermeant dye) were added in a small volume (10 μl) to the apical surface of the cultures. The ratio of DAF-2/Texas Red fluorescence was recorded using wide-field epifluorescence microscopy at baseline and after incubation at 37° C. for the indicated times. This experiment was validated by addition of DETA-NONOate, an NO donor that releases 2 moles of NO per mole of parent molecule. DETA-NONOate was added on top of ALI cultures in pH 5 buffer to stimulate rapid decomposition. Imaging was performed using a Nikon 20×0.5 NA PlanFluor objective and 100 W mercury arc lamp with filters from Chroma Technologies (Rockingham, Vt.). Green filter contained a 480/40 nm band-pass [bp] excitation filter (reported as max transmission wavelength/filter width at half maximal transmission), a 505 nm dichroic mirror, and a 535/40 nm by emission filter. Red filter set contained a 560/40 nm by excitation filter, 595 dichroic mirror, and 630/60 nm by emission filter.
(§4) We also utilized a fluorescence-based assay to measure NO diffusion into the ASL. The apical surface of cultures was overlaid with a small volume (10 μl) of phosphate-buffered saline with or without 1 mM PTC containing 2 spectrally distinct cell-impermeant dyes, the NO-sensitive 4,5-diaminofluorescence diacetate (DAF-2) and the NO-insensitive Texas Red dextran ([…] MW); a ratiometric measurement was used to eliminate any artifacts due to expansion or contraction of ASL volume. The ratio of DAF-2/Texas Red fluorescence was recorded by fluorescence microscopy after 5, 30 and 60 min incubations at 37° C. […] We utilized this assay to determine if exposure to Pseudomonas and their secretions was sufficient to cause epithelial cells to produce NO with subsequent diffusion into the ASL. Log-phase cultures of PAO1 and PAO-JP2 were resuspended in PBS and placed on the ALI surface in the presence of DAF-2 and Texas Red.

T2R38 [11] = target: T4, T2R38; assay: as above; format: cell-based; conditions: 1 mM PTC, AVI/AVI
Procedure: as §3, §4

SMILES | Bactericidal effect of ASL from treated nasal cultures (Kleibsiella pneumoniae) | Growth of bacteria mixed with ASL from stimulated cultures (Pseudomonas aeruginosa) [CFUs] | Effect of solutions alone on growth (Pseudomonas aeruginosa) | Peak Fluo-4 fluorescence (ΔF/F) (AVI-TAS2R38) [%] | Peak Fluo-4 fluorescence (ΔF/F) (PAV-TAS2R38) [%] | Beta-defensin 2 secretion (beta-defensin 2) | Growth of bacteria mixed with ASL from stimulated cultures [2] [CFUs] | Effect of solutions alone on growth [2] | further results
CC[N+](CC)(CC(=O)Nc1c(C)cccc1C)Cc1ccccc1 [denatonium, denatonium benzoate] | significant bactericidal effects | 0 | had no effect | 3±1 | 1±2 | induced | 0 | had no effect | NO production with non-T2R38 bitter ligands (T2R38 [1]): did not stimulate NO production; Fluo-4 fluorescence on stimulation with denatonium (nasal epithelial cells): increases fluo-4 fluorescence
NC(=S)Nc1ccccc1 [PTC, phenylthiocarbamide] | – | – | – | −4±1 | 114±4 | – | – | – | Fluo-4 fluorescence after 5 min PTC (T2R38 [3]): 1.14±0.035; Fluo-4 fluorescence after 5 min PTC (T2R38 [4]): 1.30±0.027; Fluo-4 fluorescence after 5 min PTC (T2R38 [5]): 1.06±0.02; Ca2+ responses in acutely dissociated sinonasal ciliated cells [6]: occurred; Increase in NO metabolites, PTC-stimulated PAV/PAV relative to AVI/AVI cultures (T2R38 [7]): > 2 fold; NO metabolites in the ASL over 20 minutes (T2R38 [8]): 4.37 pmol/µL; NO metabolites in the ASL over 20 minutes (T2R38 [9]): 1.72 pmol/µL; DAF-2/Texas Red Dextran fluorescence ratio after PTC stimulation (T2R38 [10]; 5 min): 0.46±0.10; DAF-2/Texas Red Dextran fluorescence ratio after PTC stimulation (T2R38 [10]; 30 min): 1.55±0.17; DAF-2/Texas Red Dextran fluorescence ratio after PTC stimulation (T2R38 [10]; 60 min): 2.52±0.76; DAF-2/Texas Red Dextran fluorescence ratio after PTC stimulation (T2R38 [11]; 5 min): 0.54±0.1; DAF-2/Texas Red Dextran fluorescence ratio after PTC stimulation (T2R38 [11]; 30 min): 0.71±0.1; DAF-2/Texas Red Dextran fluorescence ratio after PTC stimulation (T2R38 [11]; 60 min): 0.90±0.3
CC1=C[C@H]2[C@H]3[C@H](C(C)=C4[C@H]5OC(=O)[C@@H](C)[C@@H]5CC[C@](C)(O)[C@@H]43)[C@@]13[C@@H]2[C@@](C)(O)CC[C@H]1[C@H](C)C(=O)O[C@@H]13 [absinthin] | significant bactericidal effects | 0 | had no effect | – | – | induced | 0 | had no effect | –
